Experimental data published in PMC5669199, “CM352 Reduces Brain Damage and Improves Functional Recovery in a Rat Model of Intracerebral Hemorrhage” (Journal of the American Heart Association: Cardiovascular …, 2017).

Experiments:
[1] = tested on: thrombin‐antithrombin complex; test: Plasma thrombin‐antithrombin complex ELISA after ICH; assay type: in vivo, rat; conditions: 1 mg/kg iv after ICH; data not shown
Experimental: (§1) Blood samples (0.5 mL) were drawn from the tail vein before surgery, immediately after surgery, and at 1 hour, 3 hours, 24 hours, and 14 days. Citrate or EDTA plasma was obtained by centrifugation, and samples were stored at −80°C. Enzyme‐linked immunosorbent assay was used to measure interleukin‐6 (IL‐6, ref. KRC0061, Life Technologies, Thermo Fisher Scientific, Waltham, MA), cellular fibronectin (ref. MBS007311, MyBioSource, San Diego, CA), and thrombin‐antithrombin complex (Enzygnost TAT, ref. OWMG15, Siemens Healthcare, Erlangen, Germany) in plasma, as biomarkers of inflammation, cellular damage, and hypercoagulability, respectively. The intra‐assay and interassay coefficients of variation for all molecular markers were <10%.

[2] = Pharmacokinetics of CM352 in rats after intravenous administration; assay type: in vivo; conditions: rat, 1 mg/kg intravenous
Experimental: CM352 solutions were prepared by dissolving the solid in saline. A drug dosage of 1 mg/kg was administered as a single intravenous injection in the femoral vein. Blood was collected into citrated tubes, and plasma was obtained by 2‐step centrifugation: first at 600 g for 10 minutes and then at 18 000 g for 2 minutes. Plasma samples were stored at −80°C until analysis. CM352 was measured in plasma samples using a Xevo‐TQ MS triple quadrupole mass spectrometer with an electrospray ionization source and an Acquity UPLC (Waters, Manchester, UK) as previously reported.20 Briefly, after chromatographic separation, the compound was detected using multiple reaction monitoring. Quantification was achieved by external calibration using matrix‐matched standards prepared by adding the appropriate volume of diluted solutions of the compound (in methanol/water 50:50, v:v) to aliquots of 50 μL blank plasma. Pharmacokinetic parameters were obtained by fitting the blood concentration‐time data to a bicompartmental model with the WinNonlin software (Pharsight, Mountain View, CA).

MMP‐12 = biological target: T1, MMP‐12 (Homo sapiens, UniProt P39900); test: MMP enzyme activity assay; assay type: biochemical; conditions: read-out: MMP Inhibitory Activity (IC50), MMP‐12
T1 construct: GenScript (contract testing)
T1 sequence (P39900 106-470, species assumed): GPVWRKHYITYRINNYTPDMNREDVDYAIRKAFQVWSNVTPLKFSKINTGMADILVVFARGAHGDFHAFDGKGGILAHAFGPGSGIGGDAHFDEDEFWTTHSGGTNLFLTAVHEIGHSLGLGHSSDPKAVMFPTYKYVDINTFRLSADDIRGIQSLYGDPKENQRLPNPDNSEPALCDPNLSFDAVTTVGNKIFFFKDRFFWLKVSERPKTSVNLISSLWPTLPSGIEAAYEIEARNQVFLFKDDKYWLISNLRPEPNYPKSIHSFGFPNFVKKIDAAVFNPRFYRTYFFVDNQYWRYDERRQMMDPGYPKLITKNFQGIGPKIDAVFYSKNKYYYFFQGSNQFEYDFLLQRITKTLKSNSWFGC
Experimental: […]. Protease stock solutions (10 mmol/L) were diluted with assay buffer to make final test solutions containing no more than 2.0% DMSO. The samples were dispensed into plates; substrate was added and read with PHERAstar PLUS (BMG Labtech, Ortenberg, Germany) plate reader.

[3] = tested on: tissue‐type plasminogen activator–induced fibrinolysis in rat whole blood; test: Whole blood clot formation and lysis assay (ROTEM thromboelastometry), rat blood; assay type: biochemical
Experimental: Citrated blood samples from (n=4) rats (Sprague Dawley) and (n=16) mice ([…], Harlan Iberica) were assayed with a ROTEM analyzer (Pentapharm GmbH, Munich, Germany) as previously described.20 In a prewarmed cuvette and holder we pipetted 1 μL tissue-type plasminogen activator (150 000 U/mL), 20 μL Start-tem reagent (Pentapharm GmbH), 20 μL In-tem reagent (Pentapharm GmbH), 3 μL DMSO (SIGMA) or test compounds in DMSO, and 300 μL prewarmed citrated blood. The cup holder containing the sample mixture was placed immediately on the appropriate channel. Measurements were recorded for 60 minutes to allow clot formation and lysis, and results are expressed as effective concentration to delay lysis time by 50%.

[4] = tested on: rat model of collagenase‐induced ICH; test: Hematoma and lesion volume by T2‐weighted MRI in ICH rat model; assay type: in vivo
Experimental: Glucose levels were analyzed before surgery (mean 144.3±22.1 mg/dL). Rats were placed in a stereotaxic frame (Stoelting Co, Wood Dale, IL) under sevoflurane anesthesia. After drilling of a small burr hole, 1 μL of saline containing 0.2 U/μL bacterial collagenase type VII (Sigma‐Aldrich Corp, St. Louis, MO) was injected into the right striatum (0.6 mm anterior to bregma, −3.0 mm lateral and 5.5 mm depth) using a Hamilton syringe with a 30 G needle. Injections took place over a 10‐minute period, and the needle remained in place for additional 10 minutes before removal (1 mm/min). The burr hole was filled with bone wax (Ethicon, Somerville, NJ), and the scalp incision was closed with sutures.
. The same experimental design and setting were used to assess the effect of late (3 hours) CM352 treatment. Required sample size was calculated from previous studies using the same model21 in order to be able to detect a 25% effect size on hematoma growth versus controls (2‐tailed t test). Six animals per group are required to detect this difference with a power (1−β) of 0.8 and α=0.05. N was calculated using EPIDAT software (http://www.sergas.es/Saude-publica/EPIDAT-4-2). All treatments were given as a single bolus (jugular) 60 minutes after the collagenase injection for ICH induction. […]
Gradient‐echo pilot scans were performed at the beginning of each imaging session for accurate positioning of the animal inside the magnet bore. Multislice axial T2‐weighted imaging was performed at baseline (1 hour after IHC induction), and at 3 hours, 24 hours, and 14 days after ICH. T2‐weighted images were acquired using a RARE (factor n=4) sequence with the following acquisition parameters: field‐of‐view 19.2×19.2 mm^2, image matrix 192×192 (isotropic in‐plane resolution of 0.1×0.1 mm/pixel), 18 consecutive slices of 0.5 mm thickness.
Magnetic resonance data analysis was performed using Para Vision (Bruker Medical, Ettlingen, Germany), and images were processed with ImageJ (W. S. Rasband, National Institutes of Health, Bethesda, MD: http://rsb.info.nih.gov/ij). The analyzed region of interest was the hematoma and lesion region. Hematoma volumes (basal and 3 and 24 hours) as well as lesion volume at day 14 were manually traced from T2 maps, and the mean signal intensity was measured by 2 well‐trained imaging analysts blind to the experimental conditions.

cellular fibronectin = test: Plasma cellular fibronectin ELISA after ICH; assay type: in vivo, rat; conditions: 1 mg/kg iv after ICH; data not shown
Experimental: as §1

[5] = Activated partial thromboplastin time in plasma after ICH; assay type: in vivo, rat; conditions: n=3
Experimental: Prothrombin time (PT) and activated partial thromboplastin time (aPTT) were measured with STA‐Neoplastin R and PTT reagents (STA‐Compact, Stago, Barcelona, Spain). PT results were expressed as percentage of the standard value, and aPTT results were expressed in seconds.

[6] = 1 mg/kg 3 hours after collagenase, 5 hours
[7] = 1 mg/kg 3 hours after collagenase, 24 hours
[8] = 1 mg/kg iv 1 hour after collagenase, 3 hours
[9] = 1 mg/kg iv 1 hour after collagenase, 24 hours

## CNC(=O)c1ccc(Oc2ccc(S(=O)(=O)[C@]3(C(=O)NO)CCC4(CCNCC4)C3)cc2)cc1 [CM352, 4‐[4‐[[(3R)‐3‐(Hydroxycarbamoyl)‐8‐azaspiro[4.5]decan‐3‐yl]sulfonyl]phenoxy]‐N‐methylbenzamide]
[1]
  thrombin‐antithrombin complex levels versus control: no differences
[2]; brain, n=3, read-out: Brain/plasma ratio
  Kp: 0.0193
[2]; plasma, n=3
  half-life: 1.09 h
[2]; plasma, n=3, read-out: Cmax (maximal plasma concentration)
  Cmax: 7.8 µM
[2]; plasma, n=3, read-out: Norm. Cl (normalized clearance) (converted)
  clearance: 7 mL/min/kg
[2]; plasma, n=3, read-out: Norm. Vz (normalized volume of distribution)
  Vd: 0.66 L/kg
[2]
  maximal plasma concentration: 7.8 µmol/L
  time CM352 remains in blood above 10 nmol/L: 8 h
MMP‐12
  IC50: 0.0076 µM
[3]; rat whole blood, tPA‐induced fibrinolysis, ROTEM, read-out: effective concentration to delay lysis time by 50%
  EC50: 3.7 µM
[3]; thromboelastometry assay, whole blood
  coagulation activation and clot firmness: without changes in coagulation activation and clot firmness
[4]; [6]
  hematoma expansion: 115±17%
  reduction of hematoma expansion versus control: 62%
[4]; [7]
  hematoma expansion: 114±50%
  reduction of hematoma expansion versus control: 58%
[4]; 1 mg/kg 3 hours after collagenase, up to day 14, P<0.05
  lesion size versus control: differences in lesion size were patent between the groups
[4]; 1 mg/kg 3 hours after collagenase, versus control P<0.01
  hematoma volume after late administration: hematoma stabilized
[4]; [8]
  hematoma expansion: 200±86%
  reduction of hematoma expansion versus control: 35%
[4]; 1 mg/kg iv 1 hour after collagenase, 3 hours after ICH
  reduction in hematoma volume compared with controls: 29%
[4]; [9]
  hematoma expansion: 133±63%
  reduction of hematoma expansion versus control: 56%
[4]; 1 mg/kg iv 1 hour after collagenase, 24 hours after ICH
  reduction in hematoma volume compared with controls: 46%
[4]; 1 mg/kg iv 1 hour after collagenase, 14 days
  lesion volume smaller than controls: 48%
[4]; early‐treatment experiment, 1 hour after collagenase, before treatment, n=6
  hematoma volume at 1 hour (basal): 23.2±3.5 mm^3
[4]; late‐treatment experiment, 1 hour after collagenase, before treatment, n=6
  hematoma volume at 1 hour: 16.0±1.9 mm^3
[4]; late‐treatment experiment, 3 hours after collagenase, time of treatment, n=6
  hematoma volume at 3 hours: 39.8±6.7 mm^3
Cellular fibronectin
  cellular fibronectin levels versus control: no differences
[5]; 3 H
  aPTT: 21.7 ± 4.5 s
[5]; 5 H
  aPTT: 21.7 ± 4.0 s
[5]; 24 H
  aPTT: 21.7 ± 2.5 s
[5]; Basal
  aPTT: 21.0 ± 4.0 s
